Key:
[1] = tested on: M-21 melanoma cells; assay: Inhibition of [3H]leucine uptake (protein synthesis) in M-21 cells; assay type: cell-based, human; conditions: 72 hours incubation
Experimental: (§1) These determinations were made by standard tissue growth procedures using RPMI tissue culture medium supplemented with 10 percent fetal bovine serum plated at 10^4 cells in 100 μl of medium in 96-well tissue culture plates. The cells were permitted to adhere for 24 hours, and the dilutions of Compound 153 were added in 10 μl volumes and incubated for 72 hours at 37° C. in a humidified atmosphere containing five percent CO2. The plates were then washed three times with tissue culture medium and again incubated for 24 hours, as above. Each well received 1 μCi of ^3 H-labeled substrate, and after an additional 16 hours of incubation, cells were collected on glass fiber filters with a Skatron cell harvester. Finally, the filters were placed in Ecolume scintillation cocktail (ICN, Irvine, Calif.), and radioactivity was measured with a Beckeman scintillation counter. Incorporation of the ^3 H label was calculated as a percentage of untreated controls.

[2] = tested on: M-21 melanoma cells; assay: Inhibition of [3H]thymidine uptake (DNA synthesis) in M-21 cells; assay type: cell-based, human; conditions: 72 hours incubation
Experimental: as §1

[3] = tested on: SK-Mel-28, M-14, M-21, Capan-1, Ovcar-3, Ovcar-4, UCLA-P-3, U-87, U-251 and Molt-4 cell lines; assay type: cell-based; conditions: ten tumor cell lines
Experimental: In other studies, IC50 values were determined for the anti-tumor agents dynemicin A, calicheamicin γ1^I, taxol, vinblastine/vincristine, doxorubicin, actinomycin D and bleomycin sulfate against the SK-Mel-28, M-14, M-21, Capan-1, Ovcar-3, Ovcar-4, UCLA-P-3, U-87, U-251 and Molt-4 cell lines.

[4] = tested on: UCLA P-3 non-small cell lung carcinoma cells; assay: Sulforhodamine B cytotoxicity, UCLA-P3; assay type: cell-based, human; conditions: Homo sapiens, UCLA P-3, non small cell lung P-3; read-out: IC50
Experimental: (§2) In addition to the screening already discussed, several of the before-described compounds and chimeras were screened against several or all of a panel of ten to twenty-five cancerous cell lines as target cells and seven "normal" cell preparations. This screening utilized a sulforhodamine B cytotoxidity assay as discussed below.
(§3) IC50 values; i.e., the concentration of Compound required to kill one-half of the treated cells, were then calculated.
UCLA P-3 Dr. D. Morton, University of California, […]

[5] = tested on: H-322 lung carcinoma cells; assay: Sulforhodamine B cytotoxicity, H-322; assay type: cell-based; conditions: NCI-H322; H-322; read-out: IC50
Experimental: as §2, §3

[6] = tested on: Capan-1 pancreatic carcinoma cells; assay: Sulforhodamine B cytotoxicity, Capan-1; assay type: cell-based; conditions: Homo sapiens, CAPAN-1, Capan-1; read-out: IC50
Experimental: as §2, §3

[7] = tested on: TCAF cell line; assay: Cytotoxicity, TCAF; assay type: cell-based
Experimental: as §2, §3

[8] = Sulforhodamine B cytotoxicity, HMEC; assay type: cell-based, human; conditions: human, read-out: cell viability
Experimental: as §2, §3
HMEC Human mammary epithelial cells

[9] = tested on: H-522 lung cells; assay: Sulforhodamine B cytotoxicity, H-522; assay type: cell-based; conditions: Homo sapiens, NCI-H522
Experimental: as §2, §3

[10] = tested on: Ovcar-3 ovarian carcinoma cells; assay: Sulforhodamine B cytotoxicity, Ovcar-3; assay type: cell-based; conditions: Homo sapiens, OVCAR-3, Ovcar-3; read-out: IC50
Experimental: as §2, §3

[11] = tested on: φX174 Form I DNA; assay: φX174 supercoiled DNA cleavage, agarose gel; assay type: biochemical
[12] = tested on: M-14 melanoma cells; assay: Sulforhodamine B cytotoxicity, M-14; assay type: cell-based; conditions: Homo sapiens, M14
Experimental: as §2, §3
UCLA M-14 Dr. R. Reisfeld of The Scripps Research

[13] = tested on: L-1210 mouse lymphoma cells; assay: Sulforhodamine B cytotoxicity, L-1210; assay type: cell-based; conditions: L1210
Experimental: as §2, §3

[14] = tested on: RPMI-8226 cells; assay: Sulforhodamine B cytotoxicity, RPMI-8226; assay type: cell-based; conditions: Homo sapiens
Experimental: as §2, §3

[15] = tested on: EMT6 mammary tumor in Balb/c BYJ mice; assay: In vivo EMT6 mammary tumor in Balb/c BYJ mice; parameters: species or system mouse; conditions: 10 mg/kg on days 1, 5 and 9
Experimental: The data of FIG. 10 illustrate a further in vivo study using compound 153. Here, groups of 6-10 week old, female Balb/c BYJ mice (obtained from The Scripps Research Institute breeding colony, La Jolla, Calif.) (8 per group) were inoculated with 5×10^5 cells of the EMT6 tumor cell line, a mammary tumor. The mice were then treated with normal saline (control) or normal saline containing 10 mg/kg of Compound 153 (study) on days 1, 5 and 9 after the inoculation.

[16] = tested on: tumor cells and "normal" cells; assay: Relative activity against tumor cells and normal cells; assay type: cell-based
From the text: In contrast, 100 percent of normal human mammary epithelial cells (HMEC) were viable at the same concentration.

[17] = tested on: DNA in Molt-4 leukemia cells; assay: DNA strand breakage in Molt-4 cells (ethidium bromide fluorimetry); assay type: cell-based
Experimental: In another study, Molt-4 leukemia cells were treated with ethidium bromide, which led to uptake by DNA through intercalcation and consequent fluorescence. Exposure of those cells to Compound 153 (10 μM at 10^7 cells/ml) led to rapid DNA strand breakage as determined by fluorimetry, resulting in 95 percent destruction after four hours at 37° C. […] These observations implicate DNA strand cleavage as the direct cause of cell destruction in these studies.

[18] = tested on: U-87 UG astocytoma cells; assay: Sulforhodamine B cytotoxicity, U-87; assay type: cell-based
Experimental: as §2, §3

[19] = tested on: HL-60 promyeocytic leukemia cells; assay: Sulforhodamine B cytotoxicity, HL-60; assay type: cell-based; conditions: Homo sapiens, HL-60, HL-60; read-out: IC50
Experimental: as §2, §3

[20] = Chemical stability; assay type: physicochemical

With `O=C(OCCS(=O)(=O)c1ccccc1)N1c2ccc(OCCO)cc2C23OC24CCCC3C#C/C=C\C#CC14` (stereo not shown) [Compound 153] the “inhibition of [3H]leucine uptake (protein synthesis)” value [1] was “severely impair”, the “inhibition of [3H]thymidine uptake (DNA synthesis)” value [2] was “severely impair the ability of M-21 melanoma cells to synthesize DNA” and the “relative potency among agents across cell lines” value [3] was “comparable to most of the other agents against the other cell lines”. The IC50 [4] was 98 nM, the IC50 [5] was 390 nM and the IC50 [6] was 3.9 nM. The IC50 [7] was 1.1 nM, the viability at 72 h ([8]; 10^-6 to 10^-7 M) was 100% and the viability at 72 h, 0.01 µM ([8]; 10^-8 M) was 100%. The IC50 [9] was 98 nM, the IC50 [10] was 780 nM and the DNA cleavage ([11]; 1.0 mM, 24 hours, acidic pH) was “no DNA cleavage activity”. For the same compound, the DNA cleavage ([11]; 1.0 mM, 24 hours, pH 7.0 and higher) was “some DNA cleavage activity”, the DNA cleavage ([11]; pH 8.5, 24 or 48 hours, 37° C.) was “strong DNA cleavage activity” and the IC50 [12] was 1600 nM. The IC50 [13] was 1.3 nM, the IC50 [14] was 7.7 nM and the “tumor growth of treated tumors” value [15] was “much slower, and almost linear”. For the same compound, the “tumor volume vs control” value ([15]; day 8) was “slight difference in the average volume of the tumors, with the study group having a lower tumor burden”, the “control group's average tumor volume relative to study group” value ([15]; day 20) was “about seven” and the “selectivity between normal and cancer cells (qualitative)” value [16] was “relative selectivity for tumor cell lines as opposed to normal, untransformed cells”. The “times more active against tumor cells than against normal cells” value ([16]; except for the three melanoma cell lines) was 10^1 -10^8 times, the “DNA strand breakage (destruction)” value ([17]; 10 μM at 10^7 cells/ml, four hours at 37° C.) was 95% and the “delay of cell death relative to DNA strand breakage” value ([17]; 10 μM, Molt-4 cells) was “two”. The IC50 [18] was 780 nM, the IC50 [19] was 0.036 nM and the chemical stability [20] was “decompose cleanly to form phenyl vinyl sulfone and the corresponding free amine enediyne Compound 153a”. The time remaining intact ([20]; pH 7.0 phosphate buffer (100 mM), 37° C.) was ≥ 1.5 h.

Reference: US5281710A, “Dynemicin analogs: synthesis, methods of preparation and use” (The Scripps Research Institute, priority 1992, dated 1994)
